# In patent US8592581B2, “Trisubstituted purine derivatives” (Cyclacel Limited, priority 2007, dated 2013):
# What was measured:
# CYP2C8 = CYP2C8 (Homo sapiens (Human), UniProt P10632); assay: Cytochrome P450 substrate identification (Bactosomes) CYP2C8; assay type: in vitro ADME; conditions: pH 7.4, 5 μM test compound, up to 45 min, read-out: half life in the presence of CYP2C8
# Procedure: (§1) cDNA expressed human CYP450 enzyme preparations co-expressed with human NADPH cytochrome P450 reductase (Bactosomes™) were supplied by Cypex Ltd. Bactosomes™ (final P450 concentration CYP1A2 100 pmol/mL, CYP2C8 50 pmol/mL, CYP2C9 25 pmol/mL, CYP2C19 100 pmol/mL, CYP2D6 50 pmol/mL and CYP3A4 25 pmol/mL), 0.1M phosphate buffer pH7.4 and test compound (final substrate concentration=5 μM; final DMSO concentration=0.25%) were pre-incubated at 37° C. prior to the addition of NADPH (final concentration=1 mM) to initiate the reaction. Incubations were also performed using control bactosomes (no P450 enzymes present) to reveal any non-enzymatic degradation. The final incubation volume was 25 μL. Compounds known to be metabolised specifically by each CYP450 isoform were used as control compounds.
# (§2) Each compound was incubated singly for 0, 5, 15, 30 and 45 min with each CYP isoform. The reactions were stopped by the addition of 50 μL methanol containing internal standard at the appropriate time points. The incubation plates were centrifuged at 2500 rpm for 20 min at 4° C. to precipitate the protein. Following protein precipitation, the sample supernatants were combined in cassettes of up to four compounds and analysed using generic LC-MS/MS conditions.
# (§3) The In peak area ratio (which has been corrected for any loss in the incubations with the control bactosomes) was plotted against time and the gradient of the line determined.
# (§4) The elimination rate constant (k)=(−gradient)
# CYP2D6 = CYP2D6 (Homo sapiens (Human), UniProt P10635); assay: CYP2D6 inhibition, human liver microsomes, dextromethorphan; assay type: in vitro ADME
# Procedure: (§5) Six test compound concentrations (0.05, 0.25, 0.5, 2.5, 5, 25 μM in DMSO; final DMSO concentration=0.25%) were incubated with human liver microsomes (0.5 mg/mL) and NADPH (1 mM) in the presence of the probe substrate dextromethorphan (5 μM) for 30 min at 37° C. The selective CYP2D6 inhibitor, quinidine, was screened alongside the test compounds as a positive control.
# (§6) For the CYP1A incubations, the reactions were terminated by the addition of methanol, and the formation of the metabolite, resorufin, was monitored by fluorescence (excitation wavelength=535 nm, emission wavelength=595 nm). For the CYP2C9, CYP2C19, CYP2D6, and CYP3A4 incubations, the reactions were terminated by the addition of methanol containing internal standard. The samples were then centrifuged, and the supernatants were combined, for the simultaneous analysis of 4-hydroxytolbutamide, 4-hydroxymephenyloin, dextrorphan, and 1-hydroxymidazolam plus internal standard by LC-MS/MS using generic LC-MS/MS conditions. Formic acid in deionised water (final concentration=0.1%) was added to the final sample prior to analysis.
# CYP1A = CYP1A (Homo sapiens, UniProt P05177); assay: CYP1A inhibition, human liver microsomes, ethoxyresorufin; assay type: in vitro ADME; conditions: human liver microsomes, probe ethoxyresorufin (0.5 μM), read-out: IC50 (μM) CYP1A
# Procedure: as §5, with “concentration=0.35%)” for “concentration=0.25%)”, “(0.25” for “(0.5”, “ethoxyresorufin (0.5” for “dextromethorphan (5”, “5” for “30”, “CYP1A” for “CYP2D6”, “alpha-naphthoflavone,” for “quinidine,”
# as §6
# CYP2C19 = CYP2C19 (Homo sapiens (Human), UniProt P33261); assay: Cytochrome P450 substrate identification (Bactosomes) CYP2C19; assay type: in vitro ADME; conditions: pH 7.4, 5 μM test compound, up to 45 min, read-out: half life in the presence of CYP2C19
# Procedure: as §1, §2, §3, §4
# MESSA = assay: Alamar blue cytotoxicity assay MESSA; assay type: cell-based; conditions: Homo sapiens, MES-SA; 72 hours; read-out: cellular cytotoxicity IC50 MESSA
# Procedure: In order to determine the cellular potency of the compounds, the cytotoxicity of each compound was determined against a range of cell lines. Standard cytotoxicity methods were performed as follows: cells were seeded in 96-well plates appropriately for their doubling time (2-5000 cells per well) in RPMI or DMEM media containing 10% FCS and incubated overnight at 37° C., 5% CO2. The media was removed and 100 μl fresh media containing increasing concentrations of appropriate compound was added and the cells incubated for 72 hours at 37° C., 5% CO2. A 10% stock of alamar blue (Roche, Lewes, United Kingdom) was prepared in medium and 100 μl added to the cells which were incubated for 2 hours. Absorbance was measured on the Wallac Victor 2 1420 multi-label counter at 544-595 nm.
# CDK2/cyclin A = CDK2/cyclin A (Homo sapiens (Human), UniProt P24941); assay: In-vitro recombinant kinase assay CDK2/cyclin A; assay type: biochemical; conditions: Table 2; average of duplicate points; read-out: CDK2/Cyclin A Average IC50
# Procedure: (§7) To evaluate the in-vitro kinase potency of the compounds, they were screened against CDK 2 and CDK9. Kinase assays were performed in 96-well plates using recombinant CDK/cyclins generated at Cyclacel. Ltd Dundee, UK. CDK2 and CDK9 assays were performed in a total volume of 25 μl in assay buffer (25 mM b-glycerophosphate, 20 mM MOPS, 5 mM EGTA, 1 mM DTT and 1 mM NaVO3, pH 7.4), into which were added 2-4 μg of active enzyme with appropriate substrates (purified histone H1 for CDK2/cyclin E, and CDK2/cyclin A, biotinyl-Ahx-(YSPTSPS)4 for CDK9/cyclin T1). […] CDK2 reactions were stopped by addition of 25 μl of 75 mM phosphoric acid, followed by filtration through P81 filterplates (Whatman Polyfiltronics, Kent, UK). For CDK9, the reaction was stopped by addition of 25 μl of 75 mM phosphoric acid, then 5 μl of 10 mg/ml avidin was added to each well and further incubated for 2 min followed by filtration as per CDK2 assay. After washing 3 times with 75 mM orthophosphoric acid, plates were dried, scintillant added and incorporated radioactivity measured in a scintillation counter (TopCount, Packard Instruments, Pangbourne, Berks, UK). Compounds for kinase assay were made up as 10 mM stocks in DMSO and diluted into 10% DMSO in assay buffer.
# as §7
# Chain of CYP2D6 (P10635 whole entry): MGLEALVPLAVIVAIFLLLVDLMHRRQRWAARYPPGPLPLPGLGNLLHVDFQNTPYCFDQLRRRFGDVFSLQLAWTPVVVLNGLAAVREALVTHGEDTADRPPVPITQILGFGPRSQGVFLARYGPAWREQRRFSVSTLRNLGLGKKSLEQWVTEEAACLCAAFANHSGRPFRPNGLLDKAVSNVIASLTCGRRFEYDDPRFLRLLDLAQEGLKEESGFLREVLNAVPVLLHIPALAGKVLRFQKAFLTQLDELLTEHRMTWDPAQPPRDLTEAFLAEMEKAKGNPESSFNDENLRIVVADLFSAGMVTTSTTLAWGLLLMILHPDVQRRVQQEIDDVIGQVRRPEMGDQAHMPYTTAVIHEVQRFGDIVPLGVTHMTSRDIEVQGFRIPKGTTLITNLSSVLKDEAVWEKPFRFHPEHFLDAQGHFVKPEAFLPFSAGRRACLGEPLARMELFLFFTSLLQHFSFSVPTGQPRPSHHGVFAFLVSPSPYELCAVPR
# Chain of CYP2C19 (P33261 whole entry): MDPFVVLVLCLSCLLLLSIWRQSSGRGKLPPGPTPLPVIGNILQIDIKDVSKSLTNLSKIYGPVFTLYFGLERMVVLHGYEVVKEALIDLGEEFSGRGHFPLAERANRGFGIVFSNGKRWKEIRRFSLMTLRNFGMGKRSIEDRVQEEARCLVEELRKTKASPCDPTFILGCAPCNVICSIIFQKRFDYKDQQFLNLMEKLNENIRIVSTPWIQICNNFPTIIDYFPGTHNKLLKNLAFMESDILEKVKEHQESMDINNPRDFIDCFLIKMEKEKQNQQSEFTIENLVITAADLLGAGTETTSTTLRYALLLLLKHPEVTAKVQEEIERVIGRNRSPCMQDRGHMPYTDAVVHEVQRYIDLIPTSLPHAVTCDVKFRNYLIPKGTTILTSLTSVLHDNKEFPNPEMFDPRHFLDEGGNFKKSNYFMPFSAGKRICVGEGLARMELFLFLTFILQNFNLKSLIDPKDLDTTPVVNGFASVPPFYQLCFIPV
# Chain of CYP2C8 (P10632 whole entry): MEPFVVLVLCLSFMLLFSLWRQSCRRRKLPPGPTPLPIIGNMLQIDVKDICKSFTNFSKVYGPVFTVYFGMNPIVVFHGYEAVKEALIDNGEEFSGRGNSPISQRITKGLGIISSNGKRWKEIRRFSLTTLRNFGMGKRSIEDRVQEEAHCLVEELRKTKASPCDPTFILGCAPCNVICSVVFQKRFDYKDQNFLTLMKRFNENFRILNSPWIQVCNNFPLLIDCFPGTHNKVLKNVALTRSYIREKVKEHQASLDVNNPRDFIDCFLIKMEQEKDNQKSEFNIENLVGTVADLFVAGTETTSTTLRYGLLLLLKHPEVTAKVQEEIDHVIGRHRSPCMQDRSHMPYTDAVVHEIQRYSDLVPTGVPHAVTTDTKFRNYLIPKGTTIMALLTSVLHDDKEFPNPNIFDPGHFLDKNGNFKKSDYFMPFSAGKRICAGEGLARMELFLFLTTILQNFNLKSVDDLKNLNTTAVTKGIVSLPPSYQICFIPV
# Chain of CYP1A (P05177 2-516 limits assumed): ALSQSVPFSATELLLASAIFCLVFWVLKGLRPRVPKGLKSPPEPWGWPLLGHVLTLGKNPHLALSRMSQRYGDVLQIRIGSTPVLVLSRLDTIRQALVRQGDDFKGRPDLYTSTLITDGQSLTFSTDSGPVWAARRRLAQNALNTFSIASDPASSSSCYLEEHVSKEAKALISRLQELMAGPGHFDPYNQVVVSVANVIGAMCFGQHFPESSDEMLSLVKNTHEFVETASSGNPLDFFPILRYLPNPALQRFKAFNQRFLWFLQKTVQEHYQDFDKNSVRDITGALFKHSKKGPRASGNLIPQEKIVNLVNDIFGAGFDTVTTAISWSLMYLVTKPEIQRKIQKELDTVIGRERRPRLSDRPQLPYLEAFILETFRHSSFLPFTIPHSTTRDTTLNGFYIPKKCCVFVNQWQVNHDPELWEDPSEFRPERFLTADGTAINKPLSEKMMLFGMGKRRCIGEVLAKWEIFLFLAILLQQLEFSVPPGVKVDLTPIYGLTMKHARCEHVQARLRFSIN
structure (smiles),measurement,setting,value
CC[C@H](Nc1nc(NCc2cnc(C)cc2C)c2ncn(C(C)C)c2n1)[C@@H](C)O [Compound [1]],half-life at 5 μM,CYP2C8,> 45 min
same,IC50,CYP2D6,> 25 µM
same,IC50 at 5 min,CYP1A,> 25 µM
same,half-life at 5 μM,CYP2C19,> 45 min
same,IC50,MESSA,160 nM
same,IC50,CDK2/cyclin A,90 nM
